Source: article PMC5938755 (Biochemistry, 2018)

Target: phosphotriesterase from Sphingobium sp. TCM1 (Sb-PTE) (Sphingobium sp. TCM1, UniProt A0A077JBW9)
Assay: steady-state kinetics, release of p-nitrophenol
Format: biochemical
Conditions: 50 mM HEPES/K+, pH 8.5, 30 °C; only aryl ester hydrolysis followed

| SMILES | Km [µM] |
| --- | --- |
| COP(=O)(OC)Oc1ccc([N+](=O)[O-])cc1 [compound 3, dimethyl p-nitrophenyl phosphate] | 760 ± 50 |
| CCOP(=O)(OCC)Oc1ccc([N+](=O)[O-])cc1 [compound 11, paraoxon] | 83 ± 9 |
